Assay results as given in patent US10689383B2, “Optionally fused heterocyclyl-substituted derivatives of pyrimidine useful for the treatment of inflammatory, metabolic, oncologic and autoimmune diseases” (NUEVOLUTION A/S, priority 2014, dated 2020).

Assays:
[1] = target: T1, human RORγt (Ligand Binding Domain) (Homo sapiens, UniProt P51449); experiment: Fluorescence Polarization (FP) Assay; conditions: Fluorescence Polarization (FP) Assay; values given as upper bounds of activity ranges; read-out: FP activity range
T1 construct: purchased Crelux (Planegg, Germany) batch no PC5032-1
T1 sequence (P51449 269-508 limits assumed): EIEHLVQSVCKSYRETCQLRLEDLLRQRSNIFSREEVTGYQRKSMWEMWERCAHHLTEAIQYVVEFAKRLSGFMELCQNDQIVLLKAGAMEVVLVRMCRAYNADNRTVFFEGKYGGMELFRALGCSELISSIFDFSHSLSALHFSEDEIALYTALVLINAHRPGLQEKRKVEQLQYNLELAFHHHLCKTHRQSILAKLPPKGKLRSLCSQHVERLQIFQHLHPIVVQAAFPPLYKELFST
Summary of the method: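 Binding to the ligand pocket followed by fluorescence polarization with a TAMRA-tagged RORγt ligand probe of 910 g/mole. Negative control wells received DMSO only.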

[2] = target: T2, yeast Gal4-DNA binding domain fused to the ligand binding domain of human RORγ (Homo sapiens, UniProt P51449); experiment: RORγ Reporter Assay (Gal4); type: cell-based; conditions: RORγ Reporter Assay (Gal4) at 1 μM; values given as lower bounds of ranges
T2 construct: host or cells: HEK293t
T2 sequence (P51449 269-508 limits assumed): T1 sequence (P51449 269-508 limits assumed)
Description: The activity of the compounds was evaluated using a Fluorescence Polarization (FP) Assay and, in most cases, a Th17 Assay and/or RORγ Reporter assay (also referred to as Gal4 assay). The FP assay is an in vitro assay monitoring binding within the ligand binding pocket. The RORγ and the Th17 assays are both cell-based assays monitoring functional activity of the compound assayed.
Cell-based RORγ functional assays were performed using a commercially available assay product (INDIGO Biosciences, State College, Pa., USA; product # IB04001). The RORγ reporter cells are HEK293t cells transfected with one vector that provides high level constitutive expression of a hybrid protein comprised of the yeast Gal4-DNA binding domain fused to the ligand binding domain of human RORγ, and a second vector comprising the firefly luciferase cDNA functionally linked to the upstream activation sequence (UAS) of yeast Gal4. A suspension of RORγ Reporter Cells was prepared using the protocol and culture medium provided in the kit product, and 100 μl of the Reporter Cell suspension was then dispensed into wells of a white, collagen-treated, 96-well assay plate. Concentrated stocks of test compounds were prepared in DMSO, then further diluted using media provided in the kit to generate ‘2×-concentration’ treatment media. 100 μl of medium for each respective treatment concentration dispensed into triplicate assay wells, thereby combining with the reporter cells. All media formulations contained 10% charcoal stripped Fetal Bovine Serum, but are otherwise proprietary to INDIGO Biosciences. Final treatment concentrations for each test compound were 1,000 nM and 100 nM, each with 0.1% residual DMSO. Separate control treatments were media supplemented with vehicle only (0.1% DMSO) to determine the constitutive level of RORγ activity in the reporter cells, and the reference inverse-agonist ursolic acid (f.c. 6,000 nM to 8.2 nM in 3-fold decrements) to establish a positive control inverse-agonist dose response. Assay plates were placed in a 37° C., 5% CO2, 85% humidity incubator for 24 hour. Treatment media were then discarded, 100 μl of luciferase detection reagent was added to each well, and relative light units (RLUs) were quantified from each assay well using a plate reading luminometer. Values of average RLU+/−standard deviation were computed for all treatment sets, followed by the calculations of fold-reduction: [Average RLUVehicle/Average RLUTest Cmpd]. Percent-reduction of RORγ activity in response to respective test compound treatments was calculated: [100*(1−[Ave RLUTest Cmpd/Ave RLUVehicle)] where the theoretical minimum reduction (0% reduction) derives from Vehicle treatment only, no treatment compound.

IC50 [1] [nM]	Gal4 activity range @ 1 μM (% inhibition) [2] [% inhibition]	SMILES
< 10000	>0	Cc1c(N[C@H](CC(C)(C)C)C(N)=O)ncnc1N1CCCC1c1ccc(C(F)(F)F)cc1 (stereo partly drawn) [Example 14, (2R)-4,4-dimethyl-2-[[5-methyl-6-[2-[4-(trifluoromethyl)phenyl]pyrrolidin-1-yl]pyrimidin-4-yl]amino]pentanamide]
< 500	>80	COc1ccc(C[C@@H](Nc2ncnc(N3CCCC3c3ccc(C(F)(F)F)cc3)c2F)C(N)=O)cc1 (stereo partly drawn) [Example 17, (2R)-2-[[5-fluoro-6-[2-[4-(trifluoromethyl)phenyl]pyrrolidin-1-yl]pyrimidin-4-yl]amino]-3-(4-methoxyphenyl)propanamide]
< 2000	>50	CC(C)(C)C[C@@H](Nc1ncnc(N2CCOCC2c2ccc(C(F)(F)F)cc2)c1F)C(N)=O (stereo partly drawn) [Example 20, (2R)-2-[[5-fluoro-6-[3-[4-(trifluoromethyl)phenyl]morpholin-4-yl]pyrimidin-4-yl]amino]-4,4-dimethyl-pentanamide]
< 10000	>0	CNC(=O)[C@@H](CC(C)(C)C)N(C)c1ncnc(N2CCCC2c2ccc(C(F)(F)F)cc2)c1F (stereo partly drawn) [Example 31, (2R)-2-[[5-fluoro-6-[2-[4-(trifluoromethyl)phenyl]pyrrolidin-1-yl]pyrimidin-4-yl]-methyl-amino]-N,4,4-trimethyl-pentanamide]
< 10000	>20	CC(C)(C)C[C@@H](Nc1ccnc(N2CCCC2c2ccc(C(F)(F)F)cc2)c1F)C(N)=O (stereo partly drawn) [Example 39, (2R)-2-[[3-fluoro-2-[2-[4-(trifluoromethyl)phenyl]pyrrolidin-1-yl]-4-pyridyl]amino]-4,4-dimethyl-pentanamide]
< 2000	>20	CC(C)(C)C[C@@H](Nc1ncnc(N2CCCC2c2ccc(C(F)(F)F)cn2)c1F)C(N)=O (stereo partly drawn) [Example 42, (2R)-2-[[5-fluoro-6-[2-[5-(trifluoromethyl)-2-pyridyl]pyrrolidin-1-yl]pyrimidin-4-yl]amino]-4,4-dimethyl-pentanamide]
< 10000	–	NCCNC(=O)C1(CNc2ncnc(N3CCOC[C@@H]3c3ccc(C(F)(F)F)cc3)c2F)CCOCC1 [Example 256, N-(2-aminoethyl)-4-[[[5-fluoro-6-[(3S)-3-[4-(trifluoromethyl)phenyl]morpholin-4-yl]pyrimidin-4-yl]amino]methyl]tetrahydropyran-4-carboxamide]
< 10000	–	O=C(O)C1(CNc2ncnc(N3CCOCC3c3ccc(C(F)(F)F)cc3)c2F)CCOCC1 (centres unmarked) [Example 268, 4-[[[5-fluoro-6-[3-[4-(trifluoromethyl)phenyl]morpholin-4-yl]pyrimidin-4-yl]amino]methyl]tetrahydropyran-4-carboxylic acid]
< 1000	–	CS(=O)(=O)c1ccc(CNc2ncnc(N3CCOC[C@@H]3c3ccc(C(F)(F)F)cc3)c2F)cn1 [Example 293, 5-fluoro-N-[(6-methylsulfonyl-3-pyridyl)methyl]-6-[(3S)-3-[4-(trifluoromethyl)phenyl]morpholin-4-yl]pyrimidin-4-amine]
< 10000	–	CC(C)(CCS(C)(=O)=O)CNc1ncnc(N2CCOC[C@@H]2c2ccc(C(F)(F)F)cc2)c1F [Example 294, N-(2,2-dimethyl-4-methylsulfonyl-butyl)-5-fluoro-6-[(3S)-3-[4-(trifluoromethyl)phenyl]morpholin-4-yl]pyrimidin-4-amine]
< 10000	–	OCC1(CNc2ncnc(N3CCOC[C@@H]3c3ccc(C(F)(F)F)cc3)c2F)CC1 [Example 296, [1-[[[5-fluoro-6-[(3S)-3-[4-(trifluoromethyl)phenyl]morpholin-4-yl]pyrimidin-4-yl]amino]methyl]cyclopropyl] methanol]
< 10000	–	CS(=O)(=O)NC1CCN(c2ncnc(N3CCOC[C@@H]3c3ccc(C(F)(F)F)cc3)c2F)CC1 [Example 297, N-[1-[5-fluoro-6-[(3 S)-3-[4-(trifluoromethyl)phenyl]morpholin-4-yl]pyrimidin-4-yl]-4-piperidyl]methanesulfonamide]
< 2000	–	CS(=O)(=O)N1CCOC(CNc2ncnc(N3CCOC[C@@H]3c3ccc(C(F)(F)F)cc3)c2F)C1 (stereo partly drawn) [Example 309, 5-fluoro-N-[(4-methylsulfonylmorpholin-2-yl)methyl]-6-[(3S)-3-[4-(trifluoromethyl)phenyl]morpholin-4-yl]pyrimidin-4-amine]
< 500	–	NC(=O)Cc1ccc(CNc2ncnc(N3CCCC3c3nc4ccccc4s3)c2F)cc1 (centres unmarked) [Example 310, 2-[4-[[[6-[2-(1,3-benzothiazol-2-yl)pyrrolidin-1-yl]-5-fluoro-pyrimidin-4-yl]amino]methyl]phenyl]acetamide]
< 500	–	NC(=O)Cc1ccc(CNc2ncnc(N3CCCC3c3cccc4ccccc34)c2F)cc1 (centres unmarked) [Example 311, 2-[4-[[[5-fluoro-6-[2-(1-naphthyl)pyrrolidin-1-yl]pyrimidin-4-yl]amino]methyl]phenyl] acetamide]
< 500	–	NC(=O)Cc1ccc(CNc2ncnc(N3CCCC3c3ccc4ccccc4c3)c2F)cc1 (centres unmarked) [Example 312, 2-[4-[[[5-fluoro-6-[2-(2-naphthyl)pyrrolidin-1-yl]pyrimidin-4-yl]amino]methyl]phenyl] acetamide]
< 10000	–	Cc1nc(C2CCCN2c2ncnc(NCc3ccc(CC(N)=O)cc3)c2F)no1 (centres unmarked) [Example 314, 2-[4-[[[5-fluoro-6-[2-(5-methyl-1,2,4-oxadiazol-3-yl)pyrrolidin-1-yl]pyrimidin-4-yl]amino]methyl]phenyl]acetamide]
< 10000	–	Cc1nnc(C2CCCN2c2ncnc(NCc3ccc(CC(N)=O)cc3)c2F)o1 (centres unmarked) [Example 315, 2-[4-[[[5-fluoro-6-[2-(5-methyl-1,3,4-oxadiazol-2-yl)pyrrolidin-1-yl]pyrimidin-4-yl]amino]methyl]phenyl]acetamide]
< 10000	–	Cc1nn(C)cc1C1CCCN1c1ncnc(NCc2ccc(CC(N)=O)cc2)c1F (centres unmarked) [Example 317, 2-[4-[[[6-[2-(1,3-dimethylpyrazol-4-yl)pyrrolidin-1-yl]-5-fluoro-pyrimidin-4-yl]amino]methyl]phenyl]acetamide]
< 1000	–	CC(C)(C)C[C@@H](Nc1ncnc(N2CCC[C@@H]2c2ccc(C(F)(F)F)cc2)c1F)C(=O)O [Example 325, (2R)-2-[[5-fluoro-6-[(2R)-2-[4-(trifluoromethyl)phenyl]pyrrolidin-1-yl]pyrimidin-4-yl]amino]-4,4-dimethyl-pentanoic acid]
< 2000	–	CS(=O)(=O)c1ccc(Cn2ccc3c(N4CCOC[C@@H]4c4ccc(OC(F)(F)F)cc4)ncnc32)cn1 [Example 329, (3S)-4-[7-[(6-methylsulfonyl-3-pyridyl)methyl]pyrrolo[2,3-d]pyrimidin-4-yl]-3-[4-(trifluoromethoxy)phenyl] morpholine]
< 2000	–	CS(=O)(=O)c1ccc(Cn2ccc3c(N4CCOC[C@@H]4c4ccc(OC(F)(F)F)cc4)ncnc32)nc1 [Example 330, (3S)-4-[7-[(5-methylsulfonyl-2-pyridyl)methyl]pyrrolo[2,3-d]pyrimidin-4-yl]-3-[4-(trifluoromethoxy)phenyl] morpholine]

SMILES	IC50 [1] [nM]	Gal4 activity range @ 1 μM (% inhibition) [2] [% inhibition]
CC(C)(C)C[C@@H](Nc1ncnc(N2CCCC2c2ccc(OC(C)(C)C)cc2)c1F)C(N)=O (stereo partly drawn) [Example 43, (2R)-2-[[6-[2-(4-tert-butoxyphenyl)pyrrolidin-1-yl]-5-fluoro-pyrimidin-4-yl]amino]-4,4-dimethyl-pentanamide]	< 1000	>80
CC(OC(C)(C)C)[C@@H](Nc1ncnc(N2CCCC2c2ccc(C(F)(F)F)cc2)c1F)C(N)=O (stereo partly drawn) [Example 51, (2R)-3-tert-butoxy-2-[[5-fluoro-6-[2-[4-(trifluoromethyl)phenyl]pyrrolidin-1-yl]pyrimidin-4-yl]amino]butanamide]	< 1000	>80
